From PubChem BioAssay AID1195 (EPA DSSTox, 2008)

Tested on: human maximum recommended daily dose, FDA database
Experiment: DSSTox (FDAMDD) FDA Maximum (Recommended) Daily Dose Database
Details: active compounds read low
Source text: The Food and Drug Administration (FDA) Center for Drug Evaluation and Research, Office of Pharmaceutical Science, Informatics and Computational Safety Analysis Staff's Maximum Recommended Daily Dose (FDAMDD) database contains values for over 1200 pharmaceuticals listed in Martindale: The Extra Pharmacopoeia (1973, 1983, and 1993) and The Physicians' Desk Reference (1995 and 1999). Some classes of chemicals were excluded from the FDAMDD database due to their unsuitability for most QSAR modeling programs. These were inorganic chemicals, high molecular weight polymers (>5000 Daltons), fibers, salts, mixtures of organic chemicals, and small molecules (<100 Daltons). FDAMDD is the non-proprietary portion of the database that was used in the QSAR analysis reported in the Main Citation. DSSTox FDAMDD has fewer substance records than the original MRDD Source database due to consolidation of partial structures (i.e., complexed entities) into a single record and elimination of duplicate entries. DSSTox FDAMDD also differs from the MRDD Source database in presenting complete structural information pertaining to the actual salt or complexed form corresponding to the listed ChemicalName and CASRN. According to the Source authors, there are a number of cases where multiple related forms or derivatives of a drug were listed as separate records but were assumed to fall under the same clinical toxicity assessment and, therefore, assigned the same Dose_MRDD_mg activity value. For the DSSTox FDAMDD, we have labeled these derivatives in the ChemClass_MRDD_grouping field and provide their counts in the ChemicalReplicateCount field to highlight their special nature.
Maximum recommended daily dose (or maximum recommended therapeutic dose) values were determined from pharmaceutical clinical trials that employed an oral route of exposure and daily treatments, usually for 3-12 months. Drugs were given as single or divided dose treatment regimens to achieve desired pharmacological effects. Roughly 5% of the pharmaceuticals in the FDAMDD data file were antineoplastics and anesthetics and were administered intravenously and/or intramuscularly. When separate MRDDs were reported for different routes of exposure, only the oral MRDD was included in the data file and only MRDD values reported for the average adult patient were used. Pharmaceuticals that are administered orally are usually tested over a limited range of doses and have MRDDs reported as mg/day. The mg/day unit was converted to mg/kg-body weight (bw)/day based upon an average adult weighing 60 kg. In contrast, the dose unit for most antineoplastic drug MRDDs is reported as mg/m2 which was converted to mg/kg-bw/day using the formula mg/kg-bw/day = mg/m2/37 for an average adult. Additionally, a few drugs had MRDDs reported in parts per million (ppm) which were converted to mg/kg-bw/day on the basis that 1000 ppm equals 25 mg/kg-bw/day for an average 60 kg adult. Activity Score is mapping of LOG10(1/Dose_MRDD_mmol) spanning activity range [MIN, MAX] onto Integer 1-100 Activity range, where 100 is highest potency and 1 is lowest potency: ActivityScore = 100 * INTEGER[(LOGINV_MRDD_mmol - MIN)/(MAX […] MIN)]. Activity Outcome is "active" for all substances, since Dose_MRDD_mmol is reported for all substances.

[1] = TherapeuticCategory: uricosuric
[2] = TherapeuticCategory: antipsychotic
[3] = TherapeuticCategory: anti inflammatory
[4] = TherapeuticCategory: antibacterial
[5] = TherapeuticCategory: antineoplastic
[6] = TherapeuticCategory: bronchodilator
[7] = TherapeuticCategory: diagnostic aid
[8] = TherapeuticCategory: antiarrhythmic
[9] = TherapeuticCategory: anticholinergic

## CCCN(CCC)S(=O)(=O)c1ccc(C(=O)O)cc1
[1]
  maximum recommended daily dose (mmol/kg-bw/day): 0.0585

## CSc1ccc2c(c1)N(CCC1CCCCN1C)c1ccccc1S2 (centres undefined)
[2]
  maximum recommended daily dose (mmol/kg-bw/day): 0.0359

## CCN(CC)CCN1C(=O)CN=C(c2ccccc2F)c2cc(Cl)ccc21
TherapeuticCategory: sedative, hypnotic
  maximum recommended daily dose (mmol/kg-bw/day): 0.00129

## CCN(CC)C(=O)C1CN2CCc3cc(OC)c(OC)cc3C2CC1OC(C)=O (centres undefined)
TherapeuticCategory: antipsychotic, antiemeic
  maximum recommended daily dose (mmol/kg-bw/day): 0.00103

## COc1ccc2c3c1O[C@H]1[C@@H](O)CC[C@H]4[C@@H](C2)N(C)CC[C@@]341
TherapeuticCategory: narcotic analgesic, antitussive
  maximum recommended daily dose (mmol/kg-bw/day): 0.0106

## CN1c2ccccc2Sc2ccc(CC(=O)O)cc21
[3]
  maximum recommended daily dose (mmol/kg-bw/day): 0.0461

## Cc1ccc(S(=O)(=O)NC(=O)NN2CCCCCC2)cc1
TherapeuticCategory: antidiabetic
  maximum recommended daily dose (mmol/kg-bw/day): 0.0536

## COc1ccccc1OCCNCC(O)COc1cccc2[nH]c3ccccc3c12 (centres undefined)
TherapeuticCategory: antihypertensive, antianginal
  maximum recommended daily dose (mmol/kg-bw/day): 0.00103

## Nc1nc2ncc(CNc3ccc(C(=O)N[C@@H](CCC(=O)O)C(=O)O)cc3)nc2c(=O)[nH]1
TherapeuticCategory: hematopoetic
  maximum recommended daily dose (mmol/kg-bw/day): 3.01e-05

## CCOc1ccc2ccccc2c1C(=O)N[C@@H]1C(=O)N2[C@@H]1SC(C)(C)[C@@H]2C(=O)O
[4]
  maximum recommended daily dose (mmol/kg-bw/day): 0.241

## Nc1nc(=S)c2[nH]cnc2[nH]1
[5]
  maximum recommended daily dose (mmol/kg-bw/day): 0.0324

## C=C1CC[C@@]2(O)[C@H]3Cc4ccc(O)c5c4[C@@]2(CCN3CC2CC2)[C@H]1O5
TherapeuticCategory: narcotic antagonist
  maximum recommended daily dose (mmol/kg-bw/day): 0.00245

## CC1(C)[C@H](C(=O)O)N2C(=O)C[C@H]2S1(=O)=O
TherapeuticCategory: combination to form antibacterial
  maximum recommended daily dose (mmol/kg-bw/day): 0.286

## Cc1ccc(C(=O)Oc2ccc(C(O)CNC(C)(C)C)cc2OC(=O)c2ccc(C)cc2)cc1 (centres undefined)
[6]
  maximum recommended daily dose (mmol/kg-bw/day): 8.02e-05

## OCCN1CCN(CCCN2c3ccccc3Sc3ccc(C(F)(F)F)cc32)CC1
TherapeuticCategory: antispsychotic
  maximum recommended daily dose (mmol/kg-bw/day): 0.000761

## CCC(=O)c1ccc2c(c1)N(CCCN1CCN(CCO)CC1)c1ccccc1S2
[2]
  maximum recommended daily dose (mmol/kg-bw/day): 0.0157

## O=C(O)Cn1cc(I)c(=O)c(I)c1
[7]
  maximum recommended daily dose (mmol/kg-bw/day): 0.196

## Nc1nc2c(ncn2COCCO)c(=O)[nH]1
TherapeuticCategory: antiviral
  maximum recommended daily dose (mmol/kg-bw/day): 0.0591

## CCCCC1C(=O)N(c2ccccc2)N(c2ccccc2)C1=O
[3]
  maximum recommended daily dose (mmol/kg-bw/day): 0.0324

## COC(=O)C1=CCCN(C)C1
TherapeuticCategory: anthelmintic
  maximum recommended daily dose (mmol/kg-bw/day): 0.000215

## Cc1cccc(C)c1NC(=O)C1CCCCN1C (centres undefined)
TherapeuticCategory: local anesthetic
  maximum recommended daily dose (mmol/kg-bw/day): 0.0271

## CCOC(=O)Nc1ccc2c(c1)N(C(=O)CCN1CCOCC1)c1ccccc1S2
[8]
  maximum recommended daily dose (mmol/kg-bw/day): 0.0351

## CC(=O)Nc1c(I)cc(I)c(C(=O)O)c1I
[7]
  maximum recommended daily dose (mmol/kg-bw/day): 0.18

## NCCc1cnc[nH]1
TherapeuticCategory: gastrointestinal
  maximum recommended daily dose (mmol/kg-bw/day): 0.00013

## CCC(C)C(C(=O)OC1CCN(C)CC1)c1ccccc1 (centres undefined)
[9]
  maximum recommended daily dose (mmol/kg-bw/day): 0.00173

## CC(C)n1c(/C=C/[C@@H](O)C[C@@H](O)CC(=O)O)c(-c2ccc(F)cc2)c2ccccc21
TherapeuticCategory: antihyperlipoproteinemic
  maximum recommended daily dose (mmol/kg-bw/day): 0.00162

## C[C@]12CC[C@@H]3c4ccc(O)cc4CC[C@H]3[C@@H]1CC[C@@H]2OC(=O)CCC1CCCC1
TherapeuticCategory: estrogen
  maximum recommended daily dose (mmol/kg-bw/day): 0.00126

## NCCCC[C@H](N)C(=O)O
TherapeuticCategory: nutrient
  maximum recommended daily dose (mmol/kg-bw/day): 0.684

## CCc1oc2ccccc2c1C(=O)c1cc(Br)c(O)c(Br)c1
[1]
  maximum recommended daily dose (mmol/kg-bw/day): 0.0118

## CN1CCN(CCCN2c3ccccc3Sc3ccc(S(=O)(=O)N(C)C)cc32)CC1
TherapeuticCategory: neuroleptic, antiemetic
  maximum recommended daily dose (mmol/kg-bw/day): 0.00149

## CC(C)(C)c1cc(O)ccc1O
TherapeuticCategory: antioxidant
  maximum recommended daily dose (mmol/kg-bw/day): 0.0012

## O=C(O)c1cn(C2CC2)c2cc(N3CCNCC3)c(F)cc2c1=O
[4]
  maximum recommended daily dose (mmol/kg-bw/day): 0.0401

## Cc1ccc(Cl)c(OCC(O)CNC(C)(C)C)c1 (centres undefined)
TherapeuticCategory: antihypertensive, antianginal, antiarrhythmic, antiglaucomic
  maximum recommended daily dose (mmol/kg-bw/day): 0.0245

## CCN1CCN(C(=O)N[C@@H](C(=O)N[C@@H]2C(=O)N3[C@@H]2SC(C)(C)[C@@H]3C(=O)O)c2ccccc2)C(=O)C1=O
[4]
  maximum recommended daily dose (mmol/kg-bw/day): 0.773

## CNC(C)Cc1ccccc1OC (centres undefined)
[6]
  maximum recommended daily dose (mmol/kg-bw/day): 0.0558

## O=C1CC2(CCCC2)CC(=O)N1CCCCN1CCN(c2ncccn2)CC1
TherapeuticCategory: anxiolytic
  maximum recommended daily dose (mmol/kg-bw/day): 0.00259

## CCN(CC)CCCN(c1ccccc1)C1Cc2ccccc2C1
[8]
  maximum recommended daily dose (mmol/kg-bw/day): 0.0155

## CC(=O)OCC(=O)[C@@]1(O)[C@@H](C)C[C@H]2[C@@H]3CCC4=CC(=O)C=C[C@]4(C)[C@@]3(F)[C@@H](O)C[C@@]21C
TherapeuticCategory: glucocorticoid
  maximum recommended daily dose (mmol/kg-bw/day): 0.000345

## O=P(O)(O)OCC(O)CO (centres undefined)
TherapeuticCategory: none
  maximum recommended daily dose (mmol/kg-bw/day): 0.388

## O=C(O)c1cc(-c2ccc(F)cc2F)ccc1O
TherapeuticCategory: analgesic, anti inflammatory
  maximum recommended daily dose (mmol/kg-bw/day): 0.0999

## CCN(CCO)CCn1c(Cc2ccccc2)nc2c1c(=O)n(C)c(=O)n2C
[6]
  maximum recommended daily dose (mmol/kg-bw/day): 0.0778

## CC(I)C1OCC(CO)O1 (centres undefined)
TherapeuticCategory: expectorant
  maximum recommended daily dose (mmol/kg-bw/day): 0.0155

## C[C@]12CC[C@@H]3c4ccc(OS(=O)(=O)O)cc4CC[C@H]3[C@@H]1CCC2=O
TherapeuticCategory: estrogen
  maximum recommended daily dose (mmol/kg-bw/day): 0.000107

## CN(C)C(=O)Oc1ccc[n+](C)c1
TherapeuticCategory: cholinergic
  maximum recommended daily dose (mmol/kg-bw/day): 0.0766

## CC1=C(C(=O)O)N2C(=O)[C@@H](NC(=O)[C@H](N)C3=CCC=CC3)[C@H]2SC1
[4]
  maximum recommended daily dose (mmol/kg-bw/day): 0.191

## CC(=O)[C@]1(O)Cc2c(O)c3c(c(O)c2[C@@H](O[C@H]2C[C@H](N)[C@H](O)[C@H](C)O2)C1)C(=O)c1ccccc1C3=O
TherapeuticCategory: antibacterial, antineoplastic
  maximum recommended daily dose (mmol/kg-bw/day): 0.00543

## CCCCCCCCCCCCCCCC(=O)OCC(=O)[C@@]1(O)[C@H](C)C[C@H]2[C@@H]3CCC4=CC(=O)C=C[C@]4(C)[C@@]3(F)[C@@H](O)C[C@@]21C
TherapeuticCategory: glucocorticoid, anti inflammatory
  maximum recommended daily dose (mmol/kg-bw/day): 0.000238

## CCOC(=O)n1ccn(C)c1=S
TherapeuticCategory: thyroid inhibitor
  maximum recommended daily dose (mmol/kg-bw/day): 0.00537

## CN(C)CC/C=C1\c2ccccc2Sc2ccc(Cl)cc21
[2]
  maximum recommended daily dose (mmol/kg-bw/day): 0.0105

## C[C@@H](O)[C@H]1C(=O)N2C(C(=O)O)=C(SCCN=CN)C[C@H]12
[4]
  maximum recommended daily dose (mmol/kg-bw/day): 0.223

## CCn1nc(C)c2c1C(c1ccccc1)=NCC(=O)N2
TherapeuticCategory: antianxiolytic
  maximum recommended daily dose (mmol/kg-bw/day): 0.00496

## O=P1(N(CCCl)CCCl)NCCCO1 (centres undefined)
[5]
  maximum recommended daily dose (mmol/kg-bw/day): 0.0192

## CC(=O)Nc1c(I)c(C(=O)O)c(I)c(N(C)C(C)=O)c1I
[7]
  maximum recommended daily dose (mmol/kg-bw/day): 0.159

## Cc1c(-c2ccccc2)n(/N=N/n2c(-c3ccccc3)c(C)[n+]3ccccc23)c2cccc[n+]12
TherapeuticCategory: skeletal muscle relaxant
  maximum recommended daily dose (mmol/kg-bw/day): 0.00165

## C[N+]1([O-])[C@@H]2CC[C@H]1CC(OC(=O)C(CO)c1ccccc1)C2 (some centres undefined)
[9]
  maximum recommended daily dose (mmol/kg-bw/day): 0.000164

## CC1NCCOC1c1ccccc1 (centres undefined)
TherapeuticCategory: anorexic, CNS stimulant
  maximum recommended daily dose (mmol/kg-bw/day): 0.00705

## CC(=O)Nc1ccc(/C=N/NC(N)=S)cc1
[4]
  maximum recommended daily dose (mmol/kg-bw/day): 0.0106

## O=C1C(CCS(=O)c2ccccc2)C(=O)N(c2ccccc2)N1c1ccccc1 (centres undefined)
[1]
  maximum recommended daily dose (mmol/kg-bw/day): 0.0329

## O=C(CCCN1CC=C(n2c(=O)[nH]c3ccccc32)CC1)c1ccc(F)cc1
[2]
  maximum recommended daily dose (mmol/kg-bw/day): 0.000725

## Nc1nc2c(c(=O)[nH]1)N(C=O)C(CNc1ccc(C(=O)NC(CCC(=O)O)C(=O)O)cc1)CN2 (centres undefined)
TherapeuticCategory: antidote to folic acid antagonists, antianemic
  maximum recommended daily dose (mmol/kg-bw/day): 0.0114

## CCOC(=O)c1c(N)sc2c1CCN(Cc1ccccc1)C2
TherapeuticCategory: analgesic, antipyretic, anti inflammatory
  maximum recommended daily dose (mmol/kg-bw/day): 0.0158

## COc1ncnc(NS(=O)(=O)c2ccc(N)cc2)c1OC
[4]
  maximum recommended daily dose (mmol/kg-bw/day): 0.0806

## NS(=O)(=O)c1cc2c(cc1Cl)NC(CC1CCCC1)NS2(=O)=O (centres undefined)
TherapeuticCategory: antihypertensive
  maximum recommended daily dose (mmol/kg-bw/day): 6.58e-05

## CCOC(=O)/C=C(C)/C=C/C=C(C)/C=C/c1c(C)cc(OC)c(C)c1C
TherapeuticCategory: antipsoriatic
  maximum recommended daily dose (mmol/kg-bw/day): 0.00423
